This is an account of results in paper PMC12845261, “Design, Synthesis, and Biological Evaluation of N-Acyl-Hydrazone-Linked Quinazolinone Derivatives with Antioxidant, Antimicrobial, and Anticancer Potential” (Pharmaceuticals, 2025).

For orientation: LC50 means the concentration that kills 50% of the test population. A low value points to a more lethal substance.

Structures are written as SMILES. Several values for one entry are separate records, joined by “and”; a condition that tells them apart may be missing. Identical values can stand only once.

For data set [1], the system named is Artemia franciscana. The data set can be described thus: Artemia franciscana toxicity assay (nauplii lethality). Particulars: from LC50 at 48 h, standard aquatic toxicity classifications [53]. The procedure: (§1) The brine shrimp cysts (Artemia franciscana) were sourced from Great Salt Lake (USA) through Ocean Star International (Burlingame, CA, USA) via S.K. Trading (Bangkok, Thailand), which carried out the repackaging. Artificial seawater was prepared by dissolving a CoralMarine salt mixture (Grotech) in distilled water to achieve a concentration of about 30 g/L. The cysts were placed in artificial seawater at 25 °C under vigorous aeration. They were allowed to hatch 48 h before the onset of the test, the brine shrimp nauplii stage being selected for the toxicity assay.
(§2) The analyzed compounds were dissolved in 100 μL DMSO and then suspended in seawater to a final volume of 10 mL. The starting concentration was 1000 μM, followed by binary dilutions with seawater: 500 μM, 250 μM, 125 μM and 62.5 μM. A blank solution of 100 μL DMSO and seawater up to 10 mL was also prepared. 24 well-plates (6 × 4) were used and the assay was conducted in triplicate for each concentration and the blank solution. 15 ± 3 nauplii were added to each well, and the plates were placed into the dark. The viability of the nauplii was monitored at 24 and 48 h.
(§3) The LC50 was estimated by interpolation using RStudio 2025.09.2 [84, 85], the drc package. Several non-linear regression models were applied: generalized log logistic regressions (LL.2, LL2.2, LL.4, LL.5) and Weibull functions (W1.2, W1.3, W2.2, W2.3).

Experiment in data set [2]: as above
Particulars: Artemia franciscana (brine shrimp) nauplii, in vivo. The procedure: as §1, §2, §3

Regarding `Cc1nc2ccccc2c(=O)n1CC(=O)NN` [Compound 2, 2-(2-methyl-4-oxoquinazolin-3(4H)-yl)acetohydrazide], the Toxicity class result in data set [1] is given as “moderate toxicity”. The 50% lethal concentration (LC50) at 48 h in data set [2] is 335 µM and 77.2 µg/mL.
